Laboratory results taken from the supplement of paper PMC10307832.

What was measured:
Assay in all cases: relative viability (nuclei count vs DMSO), 5 days (fraction); higher = more cells survive
ChaGo-K-1 = test system: ChaGo-K-1
In short: (§1)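 Five library-drug doses in √10 steps were combined with a fixed anchor-drug dose, or a single drug was given alone, by pin tool to lung cancer cell lines in 1536-well plates the day after seeding. Nuclei were stained and counted after 5 days. Relative viability is the nuclei count in treated wells over that in vehicle wells, taken as the median of duplicate plates.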

EKVX = test system: EKVX
In short: as §1

EMC-BAC-2 = test system: EMC-BAC-2
In short: as §1

EPLC-272H = test system: EPLC-272H
In short: as §1

HCC-78 = test system: HCC-78
In short: as §1

HCC-827 = test system: HCC-827
In short: as §1

LCLC-103H = test system: LCLC-103H
In short: as §1

LU99A = test system: LU99A
In short: as §1

NCI-H1563 = test system: NCI-H1563
In short: as §1

NCI-H1666 = test system: NCI-H1666
In short: as §1

NCI-H1975 = test system: NCI-H1975
In short: as §1

NCI-H2126 = test system: NCI-H2126
In short: as §1

NCI-H23 = test system: NCI-H23
In short: as §1

NCI-H2405 = test system: NCI-H2405
In short: as §1

NCI-H322M = test system: NCI-H322M
In short: as §1

PC-14 = test system: PC-14
In short: as §1

RERF-LC-KJ = test system: RERF-LC-KJ
In short: as §1

SK-LU-1 = test system: SK-LU-1
In short: as §1

SW 1573 = test system: SW 1573
In short: as §1

Cc1sc2c(c1C)C(c1ccc(Cl)cc1)=N[C@@H](CC(=O)OC(C)(C)C)c1nnc(C)n1-2 [JQ1] + CC(C)C[C@H](NC(=O)[C@H](Cc1ccccc1)NC(=O)c1cnccn1)B(O)O [Bortezomib] (partner 0.002 µM)
relative viability (ChaGo-K-1; first compound 0.04 µM): 1.09 | relative viability (ChaGo-K-1; first compound 0.4 µM): 1.06 | relative viability (ChaGo-K-1; first compound 1.265 µM): 0.493 | relative viability (ChaGo-K-1; first compound 4 µM): 0.373 | relative viability (EKVX; first compound 0.04 µM): 0.981 | relative viability (EKVX; first compound 0.1265 µM): 0.842 | relative viability (EKVX; first compound 0.4 µM): 1.16 | relative viability (EKVX; first compound 1.265 µM): 0.749 | relative viability (EKVX; first compound 4 µM): 0.704 | relative viability (EMC-BAC-2; first compound 0.04 µM): 1.09 | relative viability (EMC-BAC-2; first compound 0.1265 µM): 0.961 | relative viability (EMC-BAC-2; first compound 0.4 µM): 0.91 | relative viability (EMC-BAC-2; first compound 1.265 µM): 0.621 | relative viability (EMC-BAC-2; first compound 4 µM): 0.544 | relative viability (EPLC-272H; first compound 0.04 µM): 0.915 | relative viability (EPLC-272H; first compound 0.1265 µM): 0.911 | relative viability (EPLC-272H; first compound 0.4 µM): 0.989 | relative viability (EPLC-272H; first compound 1.265 µM): 0.414 | relative viability (EPLC-272H; first compound 4 µM): 0.367 | relative viability (HCC-78; first compound 0.04 µM): 0.53 | relative viability (HCC-78; first compound 0.1265 µM): 0.453 | relative viability (HCC-78; first compound 0.4 µM): 0.231 | relative viability (HCC-78; first compound 1.265 µM): 0.19 | relative viability (HCC-78; first compound 4 µM): 0.172 | relative viability (HCC-827; first compound 0.04 µM): 0.929 | relative viability (HCC-827; first compound 0.4 µM): 0.743 | relative viability (HCC-827; first compound 1.265 µM): 1.25 | relative viability (HCC-827; first compound 4 µM): 0.928 | relative viability (LCLC-103H; first compound 0.04 µM): 1.04 | relative viability (LCLC-103H; first compound 0.1265 µM): 1.01 | relative viability (LCLC-103H; first compound 0.4 µM): 1.06 | relative viability (LCLC-103H; first compound 1.265 µM): 0.557 | relative viability (LCLC-103H; first compound 4 µM): 0.439 | relative viability (LU99A; first compound 0.04 µM): 1.32 | relative viability (LU99A; first compound 0.1265 µM): 0.8 | relative viability (LU99A; first compound 0.4 µM): 0.802 | relative viability (LU99A; first compound 1.265 µM): 0.426 | relative viability (LU99A; first compound 4 µM): 0.265 | relative viability (NCI-H1563; first compound 0.04 µM): 0.909 | relative viability (NCI-H1563; first compound 0.1265 µM): 0.619 | relative viability (NCI-H1563; first compound 0.4 µM): 0.642 | relative viability (NCI-H1563; first compound 1.265 µM): 0.544 | relative viability (NCI-H1563; first compound 4 µM): 0.621 | relative viability (NCI-H1666; first compound 0.04 µM): 0.658 | relative viability (NCI-H1666; first compound 0.1265 µM): 0.698 | relative viability (NCI-H1666; first compound 0.4 µM): 0.543 | relative viability (NCI-H1666; first compound 1.265 µM): 0.428 | relative viability (NCI-H1666; first compound 4 µM): 0.443 | relative viability (NCI-H1975; first compound 0.04 µM): 0.355 | relative viability (NCI-H1975; first compound 0.1265 µM): 0.258 | relative viability (NCI-H1975; first compound 0.4 µM): 0.317 | relative viability (NCI-H1975; first compound 1.265 µM): 0.177 | relative viability (NCI-H1975; first compound 4 µM): 0.152 | relative viability (NCI-H2126; first compound 0.04 µM): 1.08 | relative viability (NCI-H2126; first compound 0.1265 µM): 1.01 | relative viability (NCI-H2126; first compound 0.4 µM): 1.14 | relative viability (NCI-H2126; first compound 1.265 µM): 0.981 | relative viability (NCI-H2126; first compound 4 µM): 0.966 | relative viability (NCI-H23; first compound 0.04 µM): 1.07 | relative viability (NCI-H23; first compound 0.1265 µM): 0.86 | relative viability (NCI-H23; first compound 0.4 µM): 0.666 | relative viability (NCI-H23; first compound 1.265 µM): 0.241 | relative viability (NCI-H23; first compound 4 µM): 0.332 | relative viability (NCI-H2405; first compound 0.04 µM): 1.07 | relative viability (NCI-H2405; first compound 0.1265 µM): 0.628 | relative viability (NCI-H2405; first compound 0.4 µM): 1.03 | relative viability (NCI-H2405; first compound 1.265 µM): 0.827 | relative viability (NCI-H2405; first compound 4 µM): 0.678 | relative viability (NCI-H322M; first compound 0.04 µM): 1.33 | relative viability (NCI-H322M; first compound 0.1265 µM): 1.24 | relative viability (NCI-H322M; first compound 0.4 µM): 1.35 | relative viability (NCI-H322M; first compound 1.265 µM): 1.04 | relative viability (NCI-H322M; first compound 4 µM): 0.94 | relative viability (PC-14; first compound 0.04 µM): 0.811 | relative viability (PC-14; first compound 0.1265 µM): 0.901 | relative viability (PC-14; first compound 0.4 µM): 0.888 | relative viability (PC-14; first compound 1.265 µM): 0.346 | relative viability (PC-14; first compound 4 µM): 0.201 | relative viability (RERF-LC-KJ; first compound 0.04 µM): 1.17 | relative viability (RERF-LC-KJ; first compound 0.1265 µM): 1.11 | relative viability (RERF-LC-KJ; first compound 0.4 µM): 1.13 | relative viability (RERF-LC-KJ; first compound 1.265 µM): 0.52 | relative viability (RERF-LC-KJ; first compound 4 µM): 0.415 | relative viability (SK-LU-1; first compound 0.04 µM): 1.37 | relative viability (SK-LU-1; first compound 0.1265 µM): 0.693 | relative viability (SK-LU-1; first compound 0.4 µM): 0.941 | relative viability (SK-LU-1; first compound 1.265 µM): 0.28 | relative viability (SK-LU-1; first compound 4 µM): 0.205 | relative viability (SW 1573; first compound 0.04 µM): 1.13 | relative viability (SW 1573; first compound 0.1265 µM): 1.03 | relative viability (SW 1573; first compound 0.4 µM): 0.863 | relative viability (SW 1573; first compound 1.265 µM): 0.582 | relative viability (SW 1573; first compound 4 µM): 0.351
